Patent US20230233469A1, “SEMI-SOLID FORMULATION FOR VOLUNTARY ORAL ADMINISTRATION OF BIOACTIVE COMPOUNDS TO RODENTS” (priority 2020, published 2023)

Conditions: 80 mg/Kg body weight in semi-solid pill
Description: Data are presented as mean±S.E.M. (n=6-8 experimental group).

SMILES: CC(=O)CC(c1ccccc1)c1c(O)c2ccccc2oc1=O (centres unmarked) [warfarin]
- day of euthanasia for critical signs of illness (e.g. bleeding): 8 days
- day post-administration from which poor health status and evident signs of toxicity appeared: 4 days
